Test results published in patent US9624228B2, “Inhibitors of ERK and methods of use” (KURA ONCOLOGY, INC., priority 2013, dated 2017).

Target: ERK2 enzyme (Homo sapiens (Human), UniProt P28482)
Assay: Inhibition assay of ERK (Z'-LYTE kinase assay, Ser/Thr 3 peptide substrate)
Format: biochemical
Conditions: 100 μM ATP
[1] = In vitro, ERK2 enzyme 0.47 ng/μL

ERK2 enzyme, sequence (P28482 whole entry): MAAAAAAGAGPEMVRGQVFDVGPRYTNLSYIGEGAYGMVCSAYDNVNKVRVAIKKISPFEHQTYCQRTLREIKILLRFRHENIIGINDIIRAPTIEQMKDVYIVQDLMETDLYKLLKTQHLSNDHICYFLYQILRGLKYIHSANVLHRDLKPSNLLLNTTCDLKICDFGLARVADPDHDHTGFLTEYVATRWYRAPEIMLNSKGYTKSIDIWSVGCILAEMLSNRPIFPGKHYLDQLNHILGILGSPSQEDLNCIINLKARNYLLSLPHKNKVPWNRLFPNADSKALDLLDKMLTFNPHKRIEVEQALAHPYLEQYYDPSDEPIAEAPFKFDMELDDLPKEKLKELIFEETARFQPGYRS

Row | IC50 (In vitro ERK2 enzyme) [µM] | IC50 [1] [µM] | Compound
1 | < 0.05 |  | Cc1cc(-c2n[nH]c3cc4c(cc23)CN([C@@H]2CCCN(Cc3cccc(F)c3F)C2)C(=O)N4)ccn1 [Compound 185]
2 |  | < 0.05 | Cc1ccc(-c2n[nH]c3cc4c(cc23)CN([C@@H]2CCCN(Cc3ccccc3)C2)C(=O)N4)cn1 [Compound 275]
3 | 0.05 to 0.25 |  | Cc1cc(-c2n[nH]c3cc4c(cc23)CN(C2CCN(CCc3ccccc3)CC2)C(=O)N4)ccn1 [Compound 157]
4 | < 0.05 |  | COc1ccc(-c2n[nH]c3cc4c(cc23)CN(CCc2ccc(F)cc2)C(=O)N4)cn1 [Compound 79]
5 | < 0.05 |  | O=C1Nc2cc3[nH]nc(-c4ccnnc4)c3cc2CN1[C@H](CO)c1cccc(Cl)c1 [Compound 117]
6 | 0.05 to 0.25 |  | Cc1cc(-c2n[nH]c3cc4c(cc23)CN([C@@H]2CCCN(CC3CCOCC3)C2)C(=O)N4)ccn1 [Compound 135]
7 |  | < 0.05 | Cc1cc(-c2n[nH]c3cc4c(cc23)CN([C@@H]2CN(CC#N)C[C@H]2c2ccccc2)C(=O)N4)ccn1 (mixture of isomers) [Compound 366]
8 |  | < 0.05 | CCN1CC[C@@H](N2Cc3cc4c(-c5ccnc(C)c5)n[nH]c4cc3NC2=O)C1 [Compound 256]
9 | < 0.05 |  | Cc1cc(-c2n[nH]c3cc4c(cc23)CN([C@@H]2CCCN(Cc3ccc(F)c(F)c3)C2)C(=O)N4)ccn1 [Compound 190]
10 | < 0.05 |  | COc1ncc(-c2n[nH]c3cc4c(cc23)CN([C@@H]2CCCN(Cc3c(F)cccc3F)C2)C(=O)N4)cn1 [Compound 102]
11 | < 0.05 |  | COc1ncc(-c2n[nH]c3cc4c(cc23)CN(Cc2cccc(C#N)c2)C(=O)N4)cn1 [Compound 125]
12 | < 0.05 |  | Cc1cc(-c2n[nH]c3cc4c(cc23)CN([C@@H]2CCN(Cc3ccccc3)C2)C(=O)N4)ccn1 [Compound 146]
13 |  | < 0.05 | Cc1cc(-c2n[nH]c3cc4c(cc23)CN([C@@H]2CN(CC(F)(F)F)C[C@H]2c2ccc(F)cc2)C(=O)N4)ccn1 (racemic) [Compound 300]
14 | 0.05 to 0.25 |  | COc1cccc(F)c1CN1CCC(N2Cc3cc4c(-c5ccnnc5)n[nH]c4cc3NC2=O)CC1 [Compound 116]
15 | 0.05 to 0.25 |  | Cc1cc(-c2n[nH]c3cc4c(cc23)CN([C@@H]2CCCN(Cc3ccccn3)C2)C(=O)N4)ccn1 [Compound 171]
16 | 0.05 to 0.25 |  | Cc1cc(-c2n[nH]c3cc4c(cc23)CN(C2CCNCC2)C(=O)N4)ccn1 [Compound 34]
17 |  | < 0.05 | Cn1cc(-c2n[nH]c3cc4c(cc23)CN([C@@H]2CCCN(Cc3ccccc3)C2)C(=O)N4)cn1 [Compound 285]
18 | < 0.05 |  | Cc1cc(-c2n[nH]c3cc4c(cc23)CN([C@@H]2CCN(CCc3ccccc3)C2)C(=O)N4)ccn1 [Compound 153]
19 | < 0.05 |  | COc1ncc(-c2n[nH]c3cc4c(cc23)CN(CCc2ccc(F)cc2)C(=O)N4)cn1 [Compound 80]
20 |  | 0.05 to 0.25 | Cc1cc(-c2n[nH]c3cc4c(cc23)CN([C@@H]2CCN(CCC(C)C)C2)C(=O)N4)ccn1 [Compound 207]
21 | 0.05 to 0.25 |  | Cc1cc(-c2n[nH]c3cc4c(cc23)CN([C@@H]2CCCN(CC3CCCCC3)C2)C(=O)N4)ccn1 [Compound 141]
22 | < 0.05 |  | Cc1cc(-c2n[nH]c3cc4c(cc23)CN(Cc2ccc(F)cc2F)C(=O)N4)ccn1 [Compound 11]
23 | < 0.05 |  | O=C1Nc2cc3[nH]nc(-c4ccnnc4)c3cc2CN1Cc1ccc(F)cc1 [Compound 97]
24 |  | < 0.05 | Cc1cc(-c2n[nH]c3cc4c(cc23)CN(C2CCCC2)C(=O)N4)cc(C)n1 [Compound 239]
25 | < 0.05 |  | COc1ncc(-c2n[nH]c3cc4c(cc23)CN(Cc2ccc(F)cc2F)C(=O)N4)cn1 [Compound 99]
26 | < 0.05 |  | Cc1cc(-c2n[nH]c3cc4c(cc23)CN(C2CCOCC2)C(=O)N4)ccn1 [Compound 44]
27 |  | < 0.05 | Cc1cc(-c2n[nH]c3cc4c(cc23)CN([C@@H]2CCN(CC(F)(F)F)C2)C(=O)N4)ccn1 [Compound 214]
28 | < 0.05 |  | Cc1cc(-c2n[nH]c3cc4c(cc23)CN(C2CCN(Cc3ccccc3)CC2)C(=O)N4)ccn1 [Compound 70]
29 | 0.05 to 0.25 |  | Cc1cc(-c2n[nH]c3cc4c(cc23)CN([C@@H]2CCCN(C(C)c3ccc(F)cc3)C2)C(=O)N4)ccn1 (stereo partly drawn) [Compound 179]
30 | < 0.05 |  | Cc1cc(-c2n[nH]c3cc4c(cc23)CN([C@@H]2CCCN(Cc3cc(C5CC5)on3)C2)C(=O)N4)ccn1 [Compound 188]

The next lines start with the compound.

Row | Compound | IC50 (In vitro ERK2 enzyme) [µM] | IC50 [1] [µM]
31 | COc1ncc(-c2n[nH]c3cc4[nH]c(=O)c(C(C)c5cccc(Cl)c5)cc4cc23)cn1 (stereo not drawn) [Compound 129] | 0.05 to 0.25 | 
32 | COc1ncc(-c2n[nH]c3cc4c(cc23)CN(CCN)C(=O)N4)cn1 [Compound 113] | 0.05 to 0.25 | 
33 | Cc1ccc(-c2n[nH]c3cc4[nH]c(=O)c(C5CCCN(Cc6ccccc6)C5)cc4cc23)cn1 (stereo not drawn) [Compound 373] |  | 0.05 to 0.25
34 | Cc1cc(-c2n[nH]c3cc4[nH]c(=O)c(C(O)c5ccccc5)cc4cc23)ccn1 (stereo not drawn) [Compound 221] |  | < 0.05
35 | CC(c1ccccc1)c1cc2cc3c(-c4cnn(C)c4)n[nH]c3cc2[nH]c1=O (stereo not drawn) [Compound 333] |  | < 0.05
36 | Cc1cc(-c2n[nH]c3cc4c(cc23)CN(Cc2ccc(C(F)(F)F)cc2)C(=O)N4)ccn1 [Compound 12] | 0.05 to 0.25 | 
37 | Cc1cc(-c2n[nH]c3cc4c(cc23)CN([C@@H]2CN(CCC#N)C[C@H]2c2ccccc2)C(=O)N4)ccn1 (mixture of isomers) [Compound 356] |  | < 0.05
38 | Cc1cc(-c2n[nH]c3cc4c(cc23)CN(CC2CCCC2)C(=O)N4)ccn1 [Compound 212] |  | < 0.05
39 | CN(C)CCN1CCN(c2n[nH]c3cc4c(cc23)CN(Cc2ccc(F)c(Cl)c2)C(=O)N4)CC1 [Compound 260] |  | 0.25 to 1
40 | Cc1cc(-c2n[nH]c3cc4c(cc23)CN([C@@H]2CN(C)C[C@H]2c2ccccc2)C(=O)N4)cc(C)n1 [Compound 308] |  | < 0.05
41 | Cc1cc(-c2n[nH]c3cc4c(cc23)CN([C@@H]2CCCN(CC(F)(F)F)C2)C(=O)N4)cc(C)n1 [Compound 244] |  | < 0.05
42 | Cc1cc(-c2n[nH]c3cc4c(cc23)CN([C@H]2CN(CC(F)(F)F)C[C@@H]2c2ccccc2)C(=O)N4)ccn1 [Compound 303] |  | 0.25 to 1
43 | Cc1cc(-c2n[nH]c3cc4c(cc23)CN([C@@H]2CN(CC(F)(F)F)C[C@H]2c2ccccc2)C(=O)N4)ccn1 [Compound 222] |  | 0.05 to 0.25
44 | Cc1cc(-c2n[nH]c3cc4[nH]c(=O)c(C(C)c5ccc(F)cc5F)cc4cc23)ccn1 (stereo not drawn) [Compound 312] |  | 0.05 to 0.25
45 | C=C(c1ccccc1)c1cc2cc3c(-c4ccnc(C)c4)n[nH]c3cc2[nH]c1=O [Compound 269] |  | < 0.05
46 | Cc1cc(-c2n[nH]c3cc4c(cc23)CN([C@H](C)c2ccccc2)C(=O)N4)ccn1 [Compound 2, (R)-3-(2-methylpyridin-4-yl)-6-(1-phenylethyl)-5,6-dihydro-1H-pyrazolo[4,3-g]quinazolin-7(8H)-one] | < 0.05 | 
47 | Cc1cc(-c2n[nH]c3cc4c(cc23)CN(CCN2CCOCC2)C(=O)N4)ccn1 [Compound 51] | < 0.05 | 
48 | Cc1cc(-c2n[nH]c3cc4c(cc23)CN(CCNCc2ccc(F)cc2)C(=O)N4)ccn1 [Compound 175] | < 0.05 | 
49 | Cc1cc(-c2n[nH]c3cc4c(cc23)CN(Cc2ccc(C#N)cc2)C(=O)N4)ccn1 [Compound 39] | < 0.05 | 
50 | Cc1cnccc1-c1n[nH]c2cc3[nH]c(=O)c(C(C)c4ccccc4)cc3cc12 (stereo not drawn) [Compound 343] |  | 0.05 to 0.25
51 | Cc1cc(-c2n[nH]c3cc4c(cc23)CN(Cc2nc(C)c(C)s2)C(=O)N4)ccn1 [Compound 228] |  | < 0.05
